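Step 1: Grow cells in 96-well plates. Step 2: Expose to compound for 48 hours at 5 concentrations. Step 3: Interpolate endpoints linearly; if unreached, use highest concentration. GI50 marks 50% less growth.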 The source made the active and inactive calls. No stated cut-off is given here; in the data, active = GI50 up to about 1.1 µM and inactive = higher.
What was measured:
Assay in all cases: NCI-60 cell line screen, 48 h
786-0 = tested on: 786-0
A498 = tested on: A498
A549 = tested on: A549
ACHN = tested on: ACHN
CAKI-1 = tested on: CAKI-1
CCRF-CEM = tested on: CCRF-CEM
COLO 205 = tested on: COLO 205
DMS-114 = tested on: DMS-114
DMS-273 = tested on: DMS-273
EKVX = tested on: EKVX
HCC 2998 = tested on: HCC 2998
HCT-15 = tested on: HCT-15
HL-60 = tested on: HL-60
HT-29 = tested on: HT-29
IGROV-1 = tested on: IGROV-1
K562 = tested on: K562
KM-20L2 = tested on: KM-20L2
KM12 = tested on: KM12
LOX IMVI = tested on: LOX IMVI
LXFL 529 = tested on: LXFL 529
M14 = tested on: M14
M19-MEL = tested on: M19-MEL
MOLT-4 = tested on: MOLT-4
Malme-3M = tested on: Malme-3M
NCI-H226 = tested on: NCI-H226
NCI-H23 = tested on: NCI-H23
NCI-H460 = tested on: NCI-H460
NCI-H522 = tested on: NCI-H522
OVCAR-3 = tested on: OVCAR-3
OVCAR-4 = tested on: OVCAR-4
OVCAR-5 = tested on: OVCAR-5
OVCAR-8 = tested on: OVCAR-8
RPMI-8226 = tested on: RPMI-8226
RXF 393 = tested on: RXF 393
SF-268 = tested on: SF-268
SF-295 = tested on: SF-295
SF-539 = tested on: SF-539
SK-MEL-28 = tested on: SK-MEL-28
SK-MEL-2 = tested on: SK-MEL-2
SK-MEL-5 = tested on: SK-MEL-5
SK-OV-3 = tested on: SK-OV-3
SN12C = tested on: SN12C
SNB-19 = tested on: SNB-19
SNB-75 = tested on: SNB-75
SNB-78 = tested on: SNB-78
SW-620 = tested on: SW-620
TK-10 = tested on: TK-10
U-251 = tested on: U-251
UACC-257 = tested on: UACC-257
UACC-62 = tested on: UACC-62
UO-31 = tested on: UO-31
DLD-1 = tested on: DLD-1
HCT-116 = tested on: HCT-116
HOP-18 = tested on: HOP-18
HOP-62 = tested on: HOP-62
HOP-92 = tested on: HOP-92
SR = tested on: SR

Measured: GI50

O=[N+]([O-])c1cc([N+](=O)[O-])c(/C=C/c2ccc(Cl)c(Cl)c2)cc1/C=C/c1ccc(Cl)c(Cl)c1
21.2 µM: HCT-15
inactive: 786-0 24.7 µM | A498 > 100 µM | A549 41.3 µM | ACHN 22.5 µM | CAKI-1 31.4 µM | CCRF-CEM 21.7 µM | COLO 205 18.7 µM | DMS-114 24.5 µM | DMS-273 28.4 µM | EKVX 44.1 µM | HCC 2998 30.3 µM | HL-60 22.2 µM | HT-29 28.1 µM | IGROV-1 22.9 µM | K562 27.7 µM | KM-20L2 31 µM | KM12 18.5 µM | LOX IMVI 23.7 µM | LXFL 529 23.6 µM | M14 23.1 µM | M19-MEL 21.4 µM | MOLT-4 23.2 µM | Malme-3M 25.2 µM | NCI-H226 24.6 µM | NCI-H23 20.4 µM | NCI-H460 30.4 µM | NCI-H522 21.5 µM | OVCAR-3 17.5 µM | OVCAR-4 38.7 µM | OVCAR-5 36.1 µM | OVCAR-8 29.2 µM | RPMI-8226 19.3 µM | RXF 393 20.8 µM | SF-268 25.8 µM | SF-295 25.6 µM | SF-539 21.9 µM | SK-MEL-28 26.5 µM | SK-MEL-2 24.4 µM | SK-MEL-5 18.9 µM | SK-OV-3 64.6 µM | SN12C 21.2 µM | SNB-19 25.6 µM | SNB-75 29 µM | SNB-78 47.4 µM | SW-620 28.2 µM | TK-10 52.5 µM | U-251 33 µM | UACC-257 23.4 µM | UACC-62 27.5 µM | UO-31 17.5 µM

CCCn1c(SCCSc2c3ccccc3c(-c3nc(F)nc(F)n3)n2CCC)c2ccccc2c1-c1nc(F)nc(F)n1
inactive: 786-0 > 100 µM | A549 > 100 µM | ACHN 82.6 µM | CAKI-1 > 100 µM | CCRF-CEM 46.9 µM | COLO 205 38 µM | DLD-1 20.5 µM | DMS-273 > 100 µM | EKVX > 100 µM | HCC 2998 > 100 µM | HCT-116 > 100 µM | HL-60 > 100 µM | HOP-18 > 100 µM | HOP-62 > 100 µM | HOP-92 > 100 µM | HT-29 > 100 µM | K562 > 100 µM | KM-20L2 91.6 µM | KM12 > 100 µM | LXFL 529 88.9 µM | M14 > 100 µM | MOLT-4 > 100 µM | Malme-3M > 100 µM | NCI-H23 > 100 µM | NCI-H460 > 100 µM | NCI-H522 > 100 µM | OVCAR-3 > 100 µM | OVCAR-4 > 100 µM | OVCAR-5 > 100 µM | OVCAR-8 > 100 µM | RPMI-8226 27.3 µM | RXF 393 > 100 µM | SF-268 > 100 µM | SF-295 > 100 µM | SF-539 38.6 µM | SK-MEL-28 > 100 µM | SK-MEL-2 > 100 µM | SK-OV-3 > 100 µM | SN12C > 100 µM | SNB-19 > 100 µM | SNB-75 > 100 µM | SNB-78 > 100 µM | SR 27 µM | SW-620 13.8 µM | TK-10 > 100 µM | U-251 > 100 µM | UACC-257 > 100 µM | UACC-62 > 100 µM | UO-31 > 100 µM
> 100 µM: HCT-15

From ChEMBL document CHEMBL1201862, “PubChem BioAssay data set” (2004)
